Series [1] addresses Protein kinase C gamma type (Homo sapiens, UniProt P05129). Kind of series: Inhibition of Protein kinase C gamma.
Series [2] has as its target T1, Protein kinase C epsilon type (Homo sapiens, UniProt Q02156).
T1 sequence (Q02156 whole entry): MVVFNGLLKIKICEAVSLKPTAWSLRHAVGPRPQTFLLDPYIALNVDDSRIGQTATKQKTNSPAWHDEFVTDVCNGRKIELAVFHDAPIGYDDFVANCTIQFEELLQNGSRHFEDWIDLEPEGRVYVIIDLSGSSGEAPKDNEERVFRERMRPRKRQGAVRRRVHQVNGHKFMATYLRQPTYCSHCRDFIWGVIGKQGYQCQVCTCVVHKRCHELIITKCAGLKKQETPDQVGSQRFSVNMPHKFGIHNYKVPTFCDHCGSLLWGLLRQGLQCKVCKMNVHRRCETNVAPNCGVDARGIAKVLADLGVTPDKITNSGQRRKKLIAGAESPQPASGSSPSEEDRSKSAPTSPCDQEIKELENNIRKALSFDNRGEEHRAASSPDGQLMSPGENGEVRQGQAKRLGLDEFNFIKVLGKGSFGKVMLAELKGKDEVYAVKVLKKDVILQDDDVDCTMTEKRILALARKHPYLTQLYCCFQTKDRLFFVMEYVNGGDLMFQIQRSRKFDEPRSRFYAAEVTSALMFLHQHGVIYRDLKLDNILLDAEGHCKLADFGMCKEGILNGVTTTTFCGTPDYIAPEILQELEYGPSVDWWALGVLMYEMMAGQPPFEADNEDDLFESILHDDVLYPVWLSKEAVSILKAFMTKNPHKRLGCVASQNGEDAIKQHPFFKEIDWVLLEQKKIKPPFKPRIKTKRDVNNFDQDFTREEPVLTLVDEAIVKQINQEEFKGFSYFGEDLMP
Kind of series: Inhibition of Protein kinase C epsilon.

In series [3] the target is T2, Protein kinase C zeta type (Homo sapiens, UniProt Q05513).
T2 sequence (Q05513 whole entry): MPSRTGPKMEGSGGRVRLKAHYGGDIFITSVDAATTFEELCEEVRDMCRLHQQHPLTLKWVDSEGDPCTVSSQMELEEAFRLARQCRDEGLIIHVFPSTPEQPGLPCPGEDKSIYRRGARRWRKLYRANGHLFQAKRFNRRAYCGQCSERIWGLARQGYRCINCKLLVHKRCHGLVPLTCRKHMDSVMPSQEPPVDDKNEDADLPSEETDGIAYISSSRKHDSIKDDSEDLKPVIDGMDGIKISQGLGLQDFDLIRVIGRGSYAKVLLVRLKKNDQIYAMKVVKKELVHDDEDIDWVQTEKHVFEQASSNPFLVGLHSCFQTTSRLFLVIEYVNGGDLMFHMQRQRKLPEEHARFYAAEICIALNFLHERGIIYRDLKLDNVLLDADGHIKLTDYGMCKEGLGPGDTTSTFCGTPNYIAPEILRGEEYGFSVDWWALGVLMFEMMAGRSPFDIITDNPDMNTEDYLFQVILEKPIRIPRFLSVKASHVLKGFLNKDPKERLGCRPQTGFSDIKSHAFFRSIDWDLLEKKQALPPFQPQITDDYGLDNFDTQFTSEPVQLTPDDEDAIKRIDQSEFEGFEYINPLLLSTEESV
Kind of series: Inhibition of Protein kinase C zeta.

Series [4] has as its target T3, Protein kinase C beta type (Homo sapiens, UniProt P05771). Kind of series: Inhibition of Protein kinase C beta 1.
In series [5] the target is T3, Protein kinase C beta type. Kind of series: Inhibition of Protein kinase C beta 2.
Series [6] has as its target Protein kinase C alpha type (Homo sapiens, UniProt P17252). Kind of series: Inhibition of Protein kinase C alpha.
The target in series [7] is Protein kinase C eta type (Homo sapiens, UniProt P24723). Kind of series: Inhibition of Protein kinase C eta.
Series [8] deals with Protein kinase C delta type (Homo sapiens, UniProt Q05655). Kind of series: Inhibition of Protein kinase C delta.
Series [9] can be described thus: Stability in human plasma 2 hr after incubation expressed as percent concentration. The note with it: read-out: Concentration. The format is ADME, cell-free.
The nature of series [10]: Stability in human plasma 4 hr after incubation expressed as percent concentration. Format: ADME, cell-free. The settings on record: read-out: Concentration.

Where only a bound is given, the exact number is not on record here.

Sequence of Protein kinase C delta type (Q05655 whole entry): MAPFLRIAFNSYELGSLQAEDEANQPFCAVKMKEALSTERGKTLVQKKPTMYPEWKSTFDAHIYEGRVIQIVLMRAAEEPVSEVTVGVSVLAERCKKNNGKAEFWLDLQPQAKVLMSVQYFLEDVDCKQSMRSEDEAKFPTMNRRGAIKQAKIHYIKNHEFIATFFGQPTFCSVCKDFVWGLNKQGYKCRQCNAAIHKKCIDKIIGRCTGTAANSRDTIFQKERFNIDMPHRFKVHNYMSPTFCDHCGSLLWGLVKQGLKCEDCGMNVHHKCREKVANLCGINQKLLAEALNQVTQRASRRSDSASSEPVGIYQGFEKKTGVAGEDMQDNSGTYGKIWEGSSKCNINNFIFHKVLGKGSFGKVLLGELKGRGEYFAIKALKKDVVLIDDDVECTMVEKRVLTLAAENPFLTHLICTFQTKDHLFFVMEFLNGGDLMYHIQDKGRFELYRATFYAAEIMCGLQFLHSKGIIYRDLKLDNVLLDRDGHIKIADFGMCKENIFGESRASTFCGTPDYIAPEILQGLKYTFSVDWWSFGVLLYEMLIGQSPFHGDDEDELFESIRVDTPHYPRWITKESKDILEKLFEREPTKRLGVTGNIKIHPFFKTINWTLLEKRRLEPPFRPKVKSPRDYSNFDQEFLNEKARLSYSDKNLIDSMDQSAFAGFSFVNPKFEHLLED
Sequence of Protein kinase C eta type (P24723 whole entry): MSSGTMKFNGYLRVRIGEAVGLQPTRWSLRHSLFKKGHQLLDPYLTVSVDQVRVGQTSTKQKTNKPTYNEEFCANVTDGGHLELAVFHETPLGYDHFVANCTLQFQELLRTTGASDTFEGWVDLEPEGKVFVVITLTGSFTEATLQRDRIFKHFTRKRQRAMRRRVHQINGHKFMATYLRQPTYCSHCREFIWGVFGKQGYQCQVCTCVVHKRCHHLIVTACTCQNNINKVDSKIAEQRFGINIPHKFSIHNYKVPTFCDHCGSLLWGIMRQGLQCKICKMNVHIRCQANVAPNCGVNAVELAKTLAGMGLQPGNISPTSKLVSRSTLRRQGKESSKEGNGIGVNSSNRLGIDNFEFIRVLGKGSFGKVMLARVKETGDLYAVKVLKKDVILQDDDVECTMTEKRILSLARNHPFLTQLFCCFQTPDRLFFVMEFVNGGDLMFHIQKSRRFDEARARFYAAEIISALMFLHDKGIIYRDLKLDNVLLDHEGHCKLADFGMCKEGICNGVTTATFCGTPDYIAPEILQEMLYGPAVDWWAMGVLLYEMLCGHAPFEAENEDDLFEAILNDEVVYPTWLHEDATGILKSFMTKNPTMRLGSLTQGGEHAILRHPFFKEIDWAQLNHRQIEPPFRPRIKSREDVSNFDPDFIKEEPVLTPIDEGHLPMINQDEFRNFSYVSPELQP
T3 sequence (P05771 whole entry): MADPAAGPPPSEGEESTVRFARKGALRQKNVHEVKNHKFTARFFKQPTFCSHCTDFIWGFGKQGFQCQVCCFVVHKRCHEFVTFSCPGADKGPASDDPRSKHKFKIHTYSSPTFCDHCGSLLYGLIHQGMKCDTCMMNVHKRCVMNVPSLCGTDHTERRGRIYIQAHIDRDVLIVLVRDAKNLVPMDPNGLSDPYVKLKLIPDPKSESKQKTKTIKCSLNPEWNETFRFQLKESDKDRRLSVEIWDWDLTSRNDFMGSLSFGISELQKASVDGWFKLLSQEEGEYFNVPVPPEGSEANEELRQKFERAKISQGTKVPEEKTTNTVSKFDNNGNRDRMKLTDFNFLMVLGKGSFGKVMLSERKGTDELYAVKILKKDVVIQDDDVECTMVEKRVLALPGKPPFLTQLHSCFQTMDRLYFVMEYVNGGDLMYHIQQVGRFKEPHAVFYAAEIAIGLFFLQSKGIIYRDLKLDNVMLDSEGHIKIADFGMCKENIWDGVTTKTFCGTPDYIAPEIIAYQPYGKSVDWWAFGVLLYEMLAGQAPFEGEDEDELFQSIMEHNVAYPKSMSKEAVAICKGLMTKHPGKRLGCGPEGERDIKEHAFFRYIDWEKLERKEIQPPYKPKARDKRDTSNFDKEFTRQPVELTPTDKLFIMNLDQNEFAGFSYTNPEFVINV

Take `CN(C(=O)c1cc(O)c(C(=O)c2c(O)cccc2C(=O)O)c(O)c1)[C@H]1CCCNC[C@H]1NC(=O)c1ccc(O)cc1`: the IC50 in series [1], in series [2], in [3], in [4], in [5] and in series [6] was over 50000 nM in each case. Further, the values for the IC50 in series [7] and in [8] were 31000 nM and 42000 nM, respectively.
In the case of `O=C(NC[C@@H]1CCC[C@H]1NC(=O)c1ccc(O)cc1)c1cc(O)c(C(=O)c2c(O)cccc2C(=O)O)c(O)c1`, the half-inhibitory concentration (IC50) is 46000 nM in [1]; over 50000 nM in [2]; over 50000 nM in [3]; 17000 nM in series [4]; 4900 nM in series [5]; 35000 nM in [6]. In addition, the IC50 in series [7] came to 2300 nM; in series [8], 330 nM.
Consider `O=C(N[C@@H]1CCC[C@H]1OCc1cc(O)c(C(=O)c2c(O)cccc2C(=O)O)c(O)c1)c1ccc(O)cc1`, for which the IC50 in series [1] was 1100 nM; in [2] it was 370 nM; in series [3], over 50000 nM; in series [4], 430 nM; in series [5] it was 290 nM; in series [6], 460 nM. Also, the IC50 in [7] was 30 nM; in series [8], 20 nM. In addition, the remaining at 2 h in series [9] turned out to be 100%. Also, the remaining at 4 h in [10] stood at 100%.
As for `C[C@@]1(OC(=O)c2cc(O)c(C(=O)c3c(O)cccc3C(=O)O)c(O)c2)CCCNC[C@H]1NC(=O)c1ccc(O)cc1`, the IC50 in [1] turned out to be 40 nM; in [2], 50 nM; in [4] it was 120 nM; in [5] it was 70 nM; in series [6], 220 nM; in [7], 20 nM. Half-maximal inhibition in [8] (IC50) required 30 nM.
For the compound `O=C(N[C@@H]1CCC[C@H]1OC(=O)c1cc(O)c(C(=O)c2c(O)cccc2C(=O)O)c(O)c1)c1ccc(O)cc1`, the IC50 in series [7] and in series [8] was 1 nM each time.
As to `O=C(N[C@@H]1CNC[C@H]1NC(=O)c1cc(O)c(C(=O)c2c(O)cccc2C(=O)O)c(O)c1)c1ccc(O)cc1`, the IC50 was 330 nM in [1]; 80 nM in series [2]; 9600 nM in [3]; 220 nM in series [4]; 330 nM in series [5]; 920 nM in [6]. The IC50 in [7] amounted to 3 nM; in series [8], 12 nM. Besides, the remaining at 2 h in series [9] came out at 95%. Moreover, in [10], the remaining at 4 h was determined as 104%.
Turning to `O=C(N[C@@H]1CCCNC[C@H]1NC(=O)c1ccc(O)cc1)c1cc(O)c(C(=O)c2c(O)cccc2C(=O)O)c(O)c1`, the IC50 in series [1] was 420 nM; in [2], 670 nM; in [3] it was over 50000 nM; in series [4], 630 nM; in series [5], 1200 nM; in series [6], 3200 nM. For the same compound, the IC50 in series [7] was found to be 50 nM; in series [8], 220 nM.
In the case of `O=C(N[C@@H]1CNC[C@H]1OC(=O)c1cc(O)c(C(=O)c2c(O)cccc2C(=O)O)c(O)c1)c1ccc(O)cc1`, the half-inhibitory concentration (IC50) in [1] was determined as 12 nM; in series [3], 6800 nM; in series [4], 10 nM. Moreover, the remaining at 2 h in [9] worked out at 88%. The remaining at 4 h in series [10] stood at 103%.
As for `O=C(N[C@@H]1CCC[C@H]1COC(=O)c1cc(O)c(C(=O)c2c(O)cccc2C(=O)O)c(O)c1)c1ccc(O)cc1`, the IC50 was 300 nM in series [1]; 340 nM in series [2]; over 50000 nM in [3]; 40 nM in series [4]; 30 nM in series [5]; 40 nM in series [6]. The half-maximal inhibitory concentration (IC50) in [7] and in series [8] was 20 nM in each case.
Take `O=C(N[C@@H]1CNCCC[C@H]1OC(=O)c1cc(O)c(C(=O)c2c(O)cccc2C(=O)O)c(O)c1)c1ccc(O)cc1` (racemic) [BALANOL]: the IC50 in series [1] turned out to be 30 nM; in [4] it was 30 nM; in series [5], 30 nM; in series [6] it was 67 nM; in series [7], 20 nM; in series [8], 23 nM.
With `O=C(N[C@@H]1CNCCC[C@H]1OC(=O)c1cc(O)c(C(=O)c2c(O)cccc2C(=O)O)c(O)c1)c1ccc(O)cc1` [BALANOL], the IC50 in series [1] amounted to 10 nM; in [3] it was 5900 nM; in series [4] it was 10 nM; in series [5] it was 10 nM; in series [6], 30 nM; in [7], 3 nM. The compound also returned an IC50 in series [8] of 16 nM.

Values taken from ChEMBL document CHEMBL1128809 (Bioorg Med Chem Lett, 1995).
